Values of other authors in patent publication US12157728B2, “Targeting of endoplasmic reticulum dysfunction and protein folding stress to treat neurological conditions” (ALS Therapy Development Institute, priority 2018, dated 2024).
Where a name gives a salt, the structure may show the parent alone.

Tests used:
[1] = not given; remark: listed apart in the source
[2] = in vivo
[3] = system: GADD34/protein phosphatase 1 (PP1)
[4] = system: ER stress-mediated apoptosis; conditions: induced by tunicamycin
[5] = system: β-amyloid-induced neuronal death

Row | SMILES | solubility in 0.9% saline and aqueous buffers (0.9% saline and aqueous buffers at or below pH 2.0) | solubility in aqueous buffers (aqueous buffers at or above pH 3.0) | solubility in water (water) | cell death induced by α-synuclein (PC12 cells) | solubility in aqueous solutions [1] | clearance [2] | eIF2α dephosphorylation via GADD34/PP1 complex [3] | motor neuron degeneration (SOD1 mice) | survival (SOD1 mice) | ER stress-mediated apoptosis [4] | β-amyloid-induced neuronal death and microglial activation [5]
1 | CCCCCCCCc1ccc(CCC(N)(CO)CO)cc1 [Fingolimod hydrochloride] | soluble | very slightly soluble or practically insoluble | > 10% |  |  |  |  |  |  |  | 
2 | O=C(/C=C/c1ccccc1)NC(NC(=S)Nc1cccc2cccnc12)C(Cl)(Cl)Cl (centres unmarked) [Salubrinal, N-(2,2,2-trichloro-1-(3-(quinolin-8-yl)thioureido)ethyl)cinnamamide] |  |  |  | protected PC12 cells from cell death | low solubility | rapid clearance | prevent eIF2α dephosphorylation | slowed motor neuron degeneration | extended survival | inhibit ER stress-mediated apoptosis | attenuate β-amyloid-induced neuronal death and microglial activation
